From patent US20230015949A1, “NEISSERIA TREATMENT USING CANNABINOIDS” (priority 2019, published 2023)
Converted amounts (≈) assume the structure as drawn. “Also recorded” adds a separate entry of the source. Like-named read-outs stand apart in the source and are kept apart here.

Columns and labels:
[1] = tested on: Staphylococcus aureus ATCC 29213; experiment: Broth microdilution MIC assay, quality control strain (Example 2); assay type: cell-based; details: ATCC29213, S. aureus ATCC 29213 (QC), CAMHB
Procedure: (§1) Following incubation, colonies were harvested from these plates and cell suspensions prepared and frozen at −80° C. with a cryoprotectant. Prior to testing, N. gonorrhoeae isolates were streaked onto Chocolate Agar [Becton Dickinson, (BD), Sparks, Md.; Lot No. 922807]; Staphylococcus aureus ATCC 29213 tested for quality control (QC) purposes was streaked onto Trypticase Soy Agar with 5% Sheep Blood (TSA II; BD; Lot No. 9219399).
Cation-adjusted Mueller Hinton broth (CAMHB; BD; Lot No. 9019592) was used for MIC testing of S. aureus ATCC 29213 for QC purposes.
(§2) MIC values were determined using a broth microdilution procedure described by CLSI (1, 2). Automated liquid handlers (Multidrop 384, Labsystems, Helsinki, Finland; Biomek 2000 and Biomek FX, Beckman Coulter, Fullerton Calif.) were used to conduct serial dilutions and liquid transfers.
(§3) To prepare the drug mother plates, which would provide the serial drug dilutions for the replicate daughter plates, the wells of columns 2 through 12 of standard 96-well microdilution plates (Costar 3795) were filled with 150 μl of the designated diluent for each row of drug. The test articles and comparator compounds (300 μl at 100× the highest concentration to be tested) were dispensed into the appropriate wells in column 1. The Biomek 2000 was then used to make 2-fold serial dilutions in the mother plates from column 1 through column 11. The wells of column 12 contained no drug and served as the organism growth control wells for the assay.
(§4) The daughter plates were loaded with 190 μL per well of the appropriate test medium for the tested organism using the Multidrop 384. The daughter plates were completed on the Biomek FX instrument which transferred 2 μL of drug solution from each well of a mother plate to the corresponding well of each daughter plate in a single step. Daughter plates for the testing of anaerobes were allowed to pre-reduce in the Bactron II anaerobe chamber for 2 hr prior to inoculation.
A standardized inoculum of each test organism was prepared per CLSI methods (1, 2). The inoculum for each organism was dispensed into sterile reservoirs divided by length (Beckman Coulter), and the Biomek 2000 was used to inoculate the plates. Daughter plates were placed on the Biomek 2000 work surface in reverse orientation so that inoculation took place from low to high drug concentration. Anaerobic organisms were inoculated by hand in the Bactron II anaerobic chamber. Bacterial plates were then inoculated with 10 μL of the inoculum resulting in a final cell density of approximately 5×10^5 CFU/mL.
Plates were stacked 3 to 4 high, covered with a lid on the top plate and placed in plastic bags. […] The MIC was read and recorded as the lowest concentration of drug that inhibited visible growth of the organism.

Neisseria gonorrhoeae = experiment: Broth microdilution MIC assay, 30 isolates (Example 2); assay type: cell-based
Procedure: In this study, the in vitro spectrum of activity of CBD was determined against 30 isolates comprised of reference strains from the WHO, isolates from the CDC antibiotic resistance bank, and clinical isolates from the Micromyx (MMX) repository, with different resistance phenotypes. Assays were conducted following guidelines recommended by the Clinical and Laboratory Standards Institute (CLSI; 1, 2) with the exception that broth microdilution was used instead of agar dilution.
Stock solutions of all compounds were prepared on the day of testing using solvents recommended by CLSI. Stock solutions of all compounds were made at 101× the final testing concentration. CBD was supplied by Cerilliant (Round Rock, Tex.) as a 1 mg/mL methanolic solution which was stored at −20° C. after receipt. Prior to testing, using a 5 mL aliquot of the CBD methanolic solution, the methanol was dried off and the residual CBD was resuspended in 774 μL DMSO resulting in a 6.464 mg/mL solution.
The test organisms evaluated in this study consisted of Neisseria gonorrhoeae isolates from the Micromyx repository and reference isolates from the American Type Culture Collection (ATCC; Manassas, Va.), Centers for Disease Control and Prevention (CDC; Atlanta, Ga.) or the National Collection of Type Cultures (NCTC; Public Health England, Salisbury, UK). Upon initial receipt at Micromyx, the organisms were sub-cultured onto an appropriate agar medium.
as §1
For N. gonorrhoeae, a modified medium described by the ATCC as capable of supporting the growth of N. gonorrhoeae (Neisseria peptone medium) was used for the broth microdilution MIC assay. This medium contained 15 g Oxoid Special Peptone (Lot No. 1280296; Oxoid, Hampshire, UK), 1 g corn starch (Lot No. AD-13344-14; Ward's Science; Rochester, N.Y.), 5 g NaCl (Lot No. 57897; VWR, Radnor, Pa.), 4 g K2HPO4 (Lot No. SLBT7061; Sigma), and 1 g KH2PO4 (Lot No. SLBC1921V; Sigma). After autoclaving, the medium was centrifuged at 5,000×g for 10 min, the supernatant was passed through a 0.45 μm filter, and IsoVitaleX supplement (Lot No. 8323954; BD) was added at 1% (v/v).
as §2, §3, §4

[2] = 30 isolates of N. gonorrhoeae, broth microdilution, MIC distribution
[3] = 30 isolates, broth dilution assay, MIC distribution (Table 6)

SMILES: C=C(C)C1CCC(C)=CC1c1c(O)cc(CCCCC)cc1O (stereo not drawn) [CBD, 2-[3-methyl-6-(1-methylethenyl)-2-cyclohexen-1-yl]-5-pentyl-1,3-benzenediol]
- MIC [1]: 0.5 µg/mL (≈ 1.59 µM)
- Effect of the resistance phenotype of the isolate on activity (Neisseria gonorrhoeae; 30 isolates of N. gonorrhoeae with different resistance phenotypes): not affected by the resistance phenotype of the isolate; also recorded: independent of the resistance phenotype of the tested isolate
- Number of isolates at MIC value 0.015 μg/mL (Neisseria gonorrhoeae; [2]): 0
- Number of isolates at MIC value 0.03 μg/mL (Neisseria gonorrhoeae; [2]): 0
- Number of isolates at MIC value 0.06 μg/mL (Neisseria gonorrhoeae; [2]): 0
- Number of isolates at MIC value 0.5 μg/mL (Neisseria gonorrhoeae; [2]): 3
- Number of isolates at MIC value 1 μg/mL (Neisseria gonorrhoeae; [2]): 10
- Number of isolates at MIC value 2 μg/mL (Neisseria gonorrhoeae; [2]): 15
- Number of isolates at MIC value 4 μg/mL (Neisseria gonorrhoeae; [2]): 0
- Number of isolates at MIC value 8 μg/mL (Neisseria gonorrhoeae; [2]): 1
- Number of isolates at MIC value >8 μg/mL (Neisseria gonorrhoeae; [2]): 1
- Number of isolates at MIC value >32 μg/mL (Neisseria gonorrhoeae; [2]): 1
- Number of isolates at MIC value […] (Neisseria gonorrhoeae; [2]): 0
- Number of isolates at MIC 0.08 μg mL^−1 (Neisseria gonorrhoeae; [3]): 0
- Number of isolates at MIC ≤0.004 μg mL^−1 (Neisseria gonorrhoeae; [3]): 0
- MIC (Neisseria gonorrhoeae; Neisseria gonorrhoeae, ATCC49226, N. gonorrhoeae ATCC 49226 (QC), broth microdilution, read-out: MIC): 2 µg/mL (≈ 6.36 µM)
- MIC (Neisseria gonorrhoeae; Neisseria gonorrhoeae, N. gonorrhoeae CDC 0165 (CIP-R, AZI MIC 1), broth microdilution, read-out: MIC): 8 µg/mL (≈ 25.4 µM)
- MIC (Neisseria gonorrhoeae; Neisseria gonorrhoeae, N. gonorrhoeae CDC 0166 (CIP-R, AZI MIC 1), broth microdilution, read-out: MIC): 2 µg/mL (≈ 6.36 µM)
- MIC (Neisseria gonorrhoeae; Neisseria gonorrhoeae, N. gonorrhoeae CDC 0167 (CIP-S, AZI MIC 8), broth microdilution, read-out: MIC): 1 µg/mL (≈ 3.18 µM)
- MIC (Neisseria gonorrhoeae; Neisseria gonorrhoeae, N. gonorrhoeae CDC 0172 (CIP-R, AZI MIC 0.5), broth microdilution, read-out: MIC): 2 µg/mL (≈ 6.36 µM)
- MIC (Neisseria gonorrhoeae; Neisseria gonorrhoeae, N. gonorrhoeae CDC 0175 (CIP-S, AZI MIC 16), broth microdilution, read-out: MIC): 2 µg/mL (≈ 6.36 µM)
- MIC (Neisseria gonorrhoeae; Neisseria gonorrhoeae, N. gonorrhoeae CDC 0177 (CIP-S, AZI MIC 2), broth microdilution, read-out: MIC): 2 µg/mL (≈ 6.36 µM)
- MIC (Neisseria gonorrhoeae; Neisseria gonorrhoeae, N. gonorrhoeae CDC 0181 (CIP-S, AZI MIC 256), broth microdilution, read-out: MIC): 1 µg/mL (≈ 3.18 µM)
- MIC (Neisseria gonorrhoeae; Neisseria gonorrhoeae, N. gonorrhoeae CDC 0194 (CRO-NS, CIP-S, AZI MIC 0.5), broth microdilution, read-out: MIC): 2 µg/mL (≈ 6.36 µM)
- MIC (Neisseria gonorrhoeae; Neisseria gonorrhoeae, N. gonorrhoeae MMX 6921 (CIP-R), broth microdilution, read-out: MIC): 1 µg/mL (≈ 3.18 µM)
- MIC (Neisseria gonorrhoeae; Neisseria gonorrhoeae, N. gonorrhoeae MMX 6938 (CIP-S), broth microdilution, read-out: MIC): 2 µg/mL (≈ 6.36 µM)
- MIC (Neisseria gonorrhoeae; Neisseria gonorrhoeae, N. gonorrhoeae MMX 10409 (CIP-R), broth microdilution, read-out: MIC): 2 µg/mL (≈ 6.36 µM)
- MIC (Neisseria gonorrhoeae; Neisseria gonorrhoeae, N. gonorrhoeae MMX 10410 (CIP-S), broth microdilution, read-out: MIC): 2 µg/mL (≈ 6.36 µM)
- MIC (Neisseria gonorrhoeae; Neisseria gonorrhoeae, N. gonorrhoeae MMX 10447 (CIP-S), broth microdilution, read-out: MIC): 1 µg/mL (≈ 3.18 µM)
- MIC (Neisseria gonorrhoeae; Neisseria gonorrhoeae, N. gonorrhoeae MMX 10450 (CIP-S), broth microdilution, read-out: MIC): 0.5 µg/mL (≈ 1.59 µM)
- MIC (Neisseria gonorrhoeae; Neisseria gonorrhoeae, N. gonorrhoeae MMX 10452 (CIP-R), broth microdilution, read-out: MIC): 2 µg/mL (≈ 6.36 µM)
- MIC (Neisseria gonorrhoeae; Neisseria gonorrhoeae, N. gonorrhoeae MMX 10454 (CIP-R), broth microdilution, read-out: MIC): 1 µg/mL (≈ 3.18 µM)
- MIC (Neisseria gonorrhoeae; Neisseria gonorrhoeae, NCTC13477, N. gonorrhoeae NCTC 13477 (WHO F; CIP-S, AZI MIC […]), broth microdilution, read-out: MIC): 0.5 µg/mL (≈ 1.59 µM)
- MIC (Neisseria gonorrhoeae; Neisseria gonorrhoeae, NCTC13478, N. gonorrhoeae NCTC 13478 (WHO G; CIP-I, AZI MIC […]), broth microdilution, read-out: MIC): 2 µg/mL (≈ 6.36 µM)
- MIC (Neisseria gonorrhoeae; Neisseria gonorrhoeae, NCTC13479, N. gonorrhoeae NCTC 13479 (WHO K; CIP-R, AZI MIC […]), broth microdilution, read-out: MIC): 2 µg/mL (≈ 6.36 µM)
- MIC (Neisseria gonorrhoeae; Neisseria gonorrhoeae, NCTC13480, N. gonorrhoeae NCTC 13480 (WHO L; CIP-R, AZI MIC 0.5), broth microdilution, read-out: MIC): 0.5 µg/mL (≈ 1.59 µM)
- MIC (Neisseria gonorrhoeae; Neisseria gonorrhoeae, NCTC13481, N. gonorrhoeae NCTC 13481 (WHO M; CIP-R, AZI MIC […]), broth microdilution, read-out: MIC): 1 µg/mL (≈ 3.18 µM)
- MIC (Neisseria gonorrhoeae; Neisseria gonorrhoeae, NCTC13482, N. gonorrhoeae NCTC 13482 (WHO N; CIP-R, AZI MIC […]), broth microdilution, read-out: MIC): 2 µg/mL (≈ 6.36 µM)
- MIC (Neisseria gonorrhoeae; Neisseria gonorrhoeae, NCTC13483, N. gonorrhoeae NCTC 13483 (WHO O; CIP-S, AZI MIC […]), broth microdilution, read-out: MIC): 2 µg/mL (≈ 6.36 µM)
- MIC (Neisseria gonorrhoeae; Neisseria gonorrhoeae, NCTC13484, N. gonorrhoeae NCTC 13484 (WHO P; CIP-S, AZI MIC 4), broth microdilution, read-out: MIC): > 32 µg/mL
- MIC (Neisseria gonorrhoeae; Neisseria gonorrhoeae, NCTC13817, N. gonorrhoeae NCTC 13817 (WHO U; CIP-S, AZI MIC 4), broth microdilution, read-out: MIC): 1 µg/mL (≈ 3.18 µM)
- MIC (Neisseria gonorrhoeae; Neisseria gonorrhoeae, NCTC13818, N. gonorrhoeae NCTC 13818 (WHO V; CIP-R, AZI MIC >256), broth microdilution, read-out: MIC): 1 µg/mL (≈ 3.18 µM)
- MIC (Neisseria gonorrhoeae; Neisseria gonorrhoeae, NCTC13819, N. gonorrhoeae NCTC 13819 (WHO W; CIP-R, AZI MIC 0.5), broth microdilution, read-out: MIC): 1 µg/mL (≈ 3.18 µM)
- MIC (Neisseria gonorrhoeae; Neisseria gonorrhoeae, NCTC13820, N. gonorrhoeae NCTC 13820 (WHO X; CRO-NS, CIP-R, AZI MIC 0.5), broth microdilution, read-out: MIC): 2 µg/mL (≈ 6.36 µM)
- MIC (Neisseria gonorrhoeae; Neisseria gonorrhoeae, NCTC13821, N. gonorrhoeae NCTC 13821 (WHO Y; CIP-R, AZI MIC 1), broth microdilution, read-out: MIC): 1 µg/mL (≈ 3.18 µM)
- MIC50 (Neisseria gonorrhoeae; Neisseria gonorrhoeae, 30 isolates of N. gonorrhoeae, broth microdilution, read-out: MIC50): 2 µg/mL (≈ 6.36 µM)
- MIC90 (Neisseria gonorrhoeae; Neisseria gonorrhoeae, 30 isolates of N. gonorrhoeae, broth microdilution, read-out: MIC90): 2 µg/mL (≈ 6.36 µM)
- MIC (Neisseria gonorrhoeae; Neisseria gonorrhoeae, 30 isolates of N. gonorrhoeae, broth microdilution, read-out: MIC Mode): 2 µg/mL (≈ 6.36 µM)
